System: Concord grape vines
Assay: Bud break and shoot growth of potted dormant Concord grape vines in the greenhouse (Example 1)
Format: in vivo
Settings: for % bud break (vines with at least one bud break): hydrogen cyanamide 10,000 ppm, 17-0-0 197,100 ppm, 15-0-0 239,060 ppm, ACC 1,000 ppm
Text: An aqueous 50% hydrogen cyanamide solution (Sigma-Aldrich, St. Louis, Mo. USA) was used as the source of hydrogen cyanamide. The commercial product, Dormex® contains 50% hydrogen cyanamide (w/v) in water.
Erger® was used as the source of 15-0-0 fertilizer. (Erger is a registered trademark of Valagro S.P.A., Italy and is available from Helena Chemical Company, Collierville, Tenn., USA). Erger® contains 15% total nitrogen as 3.1% ammoniacal nitrogen, 5.8% nitrate nitrogen and 6.1% urea nitrogen and 3.3% calcium derived from ammonium nitrate, calcium nitrate and urea. As used herein, the term “15-0-0 fertilizer” refers to the Erger® formulation above and all formulations described in International PCT application publication WO/2001/037653A2 by Valagro S.P.A., Italy, which is incorporated, herein, in its entirety.
CAN-17 was used as the source of 17-0-0 fertilizer. CAN-17 contains 17% total nitrogen as 4.6% ammonium nitrogen and […] nitrate nitrogen and 1.3% urea nitrogen and 8.8% calcium derived from ammonium nitrate and calcium nitrate. CAN-17 is available from J.R. Simplot Company (Boise, Id., USA).
To assess the ability of mixtures of the invention to promote and synchronize bud break these mixtures were applied to Concord grape vines and examined for bud break (initiation of growth) and subsequent shoot development. Specifically, 1 year old dormant bare rooted Concord grape vines were planted in pots containing Pro-Mix® BX potting soil (Pro-Mix is a registered trademark of and available from Premier Horticulture Ltd.) and pruned to 5 nodes on a single shoot. Aqueous solutions of thidiazuron, hydrogen cyanamide, 15-0-0 fertilizer, 17-0-0 fertilizer and 1-aminocyclopropane-1-carboxylic acid (“ACC”), and mixtures thereof were each applied individually or sequentially or co-applied to the first-year wood of separate Concord grape vines. Plants were grown in the greenhouse for 49 days and evaluated for percent of vines showing bud break, or relief from dormancy, periodically between 7 days and the conclusion of the experiment. […] At 49 days after treatment (DAT), the plants were sacrificed and measured for total number of flower clusters, total new shoot length, longest new shoot, combined new shoot fresh weight and combined new shoot dry weight. New shoot growth is the growth arising from the dormant buds not including the woody growth that was planted and gave rise to the new growth.
Synergy is calculated by the Abbott method: %Cexp=A+B−(AB/100), where % Cexp is the expected efficacy and in which A and B are the speed of bud break or shoot length or shoot weight given by the single active ingredients. If the ratio between the experimentally observed efficacy of the mixture Cobs and the expected efficacy of the mixture is greater than 1, synergistic interactions are present in the mixture” (Gisi, Synergistic Interaction of Fungicides in Mixtures, The American Phytopathological Society, 86:11, 1273-1279,1996).

[1] = 49 days post treatment, thidiazuron ppm as in label, other concentrations as in Table 1

## NC1(C(=O)O)CC1 [ACC, 1-aminocyclopropane-1-carboxylic acid]
7 DAT, thidiazuron 300 ppm unless label states other
  % bud break (vines with at least one bud break): 0%
10 DAT, thidiazuron 300 ppm unless label states other
  % bud break (vines with at least one bud break): 11.1%
13 DAT, thidiazuron 300 ppm unless label states other
  % bud break (vines with at least one bud break): 11.1%
15 DAT, thidiazuron 300 ppm unless label states other
  % bud break (vines with at least one bud break): 11.1%
17 DAT, thidiazuron 300 ppm unless label states other
  % bud break (vines with at least one bud break): 11.1%
20 DAT, thidiazuron 300 ppm unless label states other
  % bud break (vines with at least one bud break): 11.1%
22 DAT, thidiazuron 300 ppm unless label states other
  % bud break (vines with at least one bud break): 22.2%
24 DAT, thidiazuron 300 ppm unless label states other
  % bud break (vines with at least one bud break): 22.2%
27 DAT, thidiazuron 300 ppm unless label states other
  % bud break (vines with at least one bud break): 22.2%
29 DAT, thidiazuron 300 ppm unless label states other
  % bud break (vines with at least one bud break): 33.3%
31 DAT, thidiazuron 300 ppm unless label states other
  % bud break (vines with at least one bud break): 33.3%
34 DAT, thidiazuron 300 ppm unless label states other
  % bud break (vines with at least one bud break): 55.6%
36 DAT, thidiazuron 300 ppm unless label states other
  % bud break (vines with at least one bud break): 66.7%
38 DAT, thidiazuron 300 ppm unless label states other
  % bud break (vines with at least one bud break): 77.8%
41 DAT, thidiazuron 300 ppm unless label states other
  % bud break (vines with at least one bud break): 77.8%
43 DAT, thidiazuron 300 ppm unless label states other
  % bud break (vines with at least one bud break): 77.8%
49 DAT, thidiazuron 300 ppm unless label states other
  % bud break (vines with at least one bud break): 77.8%
[1]
  Combined Shoot Dry Weight: 1.2 g
  Combined Shoot Fresh Weight: 7.1 g
  Longest Shoot Length: 27.9 cm
  Total # of Flower Clusters: 0.1
  Total Shoot Length: 28.9 cm
Combined shoot dry weight at 49 DAT normalised by days from 25% bud break to harvest
  Dry Weight (g)/25% Bud Break to Harvest (d): 0.06 g/day
Combined shoot dry weight at 49 DAT normalised by days from 50% bud break to harvest
  Dry Weight (g)/50% Bud Break to Harvest (d): 0.08 g/day
Combined shoot fresh weight at 49 DAT normalised by days from 50% bud break to harvest
  Fresh Weight (g)/50% Bud Break to Harvest (d): 0.47 g/day
Harvest at day 49, thidiazuron 300 ppm unless label states other, other concentrations as in Table 1
  50% Bud Break to Harvest: 15 days
Synchrony of bud break, thidiazuron 300 ppm unless label states other, other concentrations as in Table 1
  Initial to 50% Bud Break: 25 days
Time to 25% bud break, thidiazuron 300 ppm unless label states other, other concentrations as in Table 1
  25% Bud Break (DAT): 28 DAT
Time to 50% bud break, thidiazuron 300 ppm unless label states other, other concentrations as in Table 1
  50% Bud Break (DAT): 34 DAT

— patent publication US10757943B2, “Thidiazuron mixtures and uses thereof” (Valent BioSciences LLC, priority 2017, dated 2020)
